# Legend:
# [1] = test system: CD48 negative and CD150 positive fraction of bone marrow cells; assay: Experimental Example 18: compound 7 staining with anti CD48 / anti CD150 antibody markers, flow cytometry; format: cell-based, mouse; conditions: cytogram of two compound 7-derived fluorescence signals
# Source text: Cells collected from a mouse were subjected to the exposure to the compound 7 and a blocking treatment in the same manner as in Experimental Example 1. In order to evaluate incorporation of antibody markers, used as test substances, of an anti CD48 antibody and an anti CD150 antibody by hematopoietic stem cells, the blocked cells were further stained with the anti CD48 antibody and the anti CD150 antibody. Furthermore, the resulting cells were subjected to dead cell staining with TO-PRO-3. Next, the cells were analyzed with an FACS Canto II flow cytometer manufactured by BD Biosciences. In the analysis, cell populations having a low TO-PRO-3 signal were regarded as a target, so that the analysis could be performed on a cell population excluding dead cells.
# [2] = test system: c-Kit positive hematopoietic stem cells (bone marrow cells); assay: Experimental Example 19: exposure to compound 7 in the presence of test substances, c-Kit staining, FACS; format: cell-based, mouse
# Protocol: Cells collected from a mouse in the same manner as in Experimental Example 1 were exposed to the compound 7 in the presence of test substances of fumitremorgin C and digoxin (both in 1 μM). After performing a blocking treatment in the same manner as in Experimental Example 1, the resulting cells were stained with an anti c-Kit antibody, that is, a marker for hematopoietic stem cells and hematopoietic precursor cells. The cells were further subjected to the dead cell staining with TO-PRO-3. Next, the cells were analyzed with FACS Aria II cell sorter manufactured by BD Biosciences. In the analysis, cell populations having a low TO-PRO-3 signal were regarded as a target, so that the analysis could be performed on a cell population excluding dead cells.
# In other words, hematopoietic stem cell groups that were c-Kit positive and negative for the compound 7-derived signal were confirmed to be reduced by adding the test substances.
# [3] = test system: hematopoietic stem cells (bone marrow cells); assay: Identification of hematopoietic stem cells in stained bone marrow cells by FACS with antibody markers (Experimental Examples 1-17, Comparative Examples 1-2); format: cell-based, C57BL/6 mouse; parameters: key to Identification of hematopoietic stem cells: A: Hematopoietic stem cells are identified very well.; B: Hematopoietic stem cells are identified well.; C: Hematopoietic stem cells are poorly identified; conditions: for Identification of hematopoietic stem cells: mouse bone marrow cells, FACS
# Protocol: A 1 mM DMSO solution of the compound 7 was added to an HBSS buffer containing 2% of FBS and 10 mM of HEPES, so as to obtain a stain of the compound 7 in a concentration of 1 μM. Bone marrow cells collected from a femur of a C57BL/6 mouse (of 12 weeks old) and hemolyzed were added to the stain in an amount of 1×10^6 cells/mL for exposure at 37° C. for 30 minutes. After the exposure, the cells were precipitated by centrifuge for removing the stain, and a blocking treatment was performed with 2.4G2 (anti-mouse Fcγ receptor II/III antibody-producing hybridoma supernatant). The blocked cells were further subjected to immunofluorescence staining with an anti c-Kit antibody, an anti Sca-1 antibody, an anti CD34 antibody and Lineage Marker. Furthermore, the cells were subjected to dead cell staining with TO-PRO-3. The respective antibodies used for fluorescence staining were selected so that the respective fluorescence wavelengths might not overlap one another and might not overlap the fluorescence wavelength of the compound 7 and the fluorescence wavelength of TO-PRO-3. Next, the resulting cells were analyzed with FACS Aria II cell sorter manufactured by BD Biosciences. In the analysis, cell populations having a low TO-PRO-3 signal were regarded as a target, so that the analysis could be performed on a cell population excluding dead cells.
# First, fluorescence intensities of the cells obtained by analyzing fluorescence signals derived from the compound 7 based on signal intensities in two channels excited at 488 nm (PE-Cy5; 660/20 nm and PerCP-Cy 5.5; 710/50 nm: center wavelength/wavelength width) were developed into a cytogram.
# Furthermore, among Lineage Marker negative cell fractions, cell fractions of Sca-1 positive, c-Kit positive and CD34 negative, which are used as markers for hematopoietic stem cells, were developed into cytograms as illustrated in FIG. 2 with respect to the two fluorescence signals derived from the compound 7 as in FIG. 1. […] Furthermore, merely cells identified by the compound 7 were separated by sorting.
# Fluorescence signals derived from the compounds 8 to 23 were analyzed in the same manner as in Experimental Example 1 except that the compound 7 used in Experimental Example 1 was changed to each of the compounds 8 to 23.
# Fluorescence signals derived from fluorescein were analyzed in the same manner as in Experimental Example 1 except that the compound 7 used in Experimental Example 1 was changed to fluorescein.
# Fluorescence signals derived from Mito Tracker® Green FM were analyzed in the same manner as in Experimental Example 1 except that the compound 7 used in Experimental Example 1 was changed to Mito Tracker® Green FM.
# The identification was evaluated in the following three grades A to C: […]
# [4] = Measurement of fluorescence characteristics of compounds (fluorescence spectrophotometer); format: physicochemical; conditions: 5 μM DMSO solution
# Protocol: With respect to each of the compounds 7 to 23, a 5 μM DMSO solution was prepared, and an excitation wavelength and a fluorescence wavelength were measured by using a fluorescence spectrophotometer FL4500 manufactured by Hitachi High-Technologies Corporation (Table 1).
# [5] = cells exposed to compound 7 in the presence of test substance 1 μM
SMILES,Excitation wavelength λex [4],Fluorescence wavelength λem [4],Cells of CD48 negative and CD150 positive fraction present in region where hematopoietic stem cells were identified [1],"c-Kit positive, compound 7-derived signal negative hematopoietic stem cells in the whole cells ([2]; in the absence of an inhibitor (w/o inhibitors))",Whether hematopoietic stem cells can be identified (in words) ([3]; same manner as Experimental Example 1),"Identification of hematopoietic stem cells ([3]; stain 1 μM, 37° C., 30 minutes)","Lineage Marker negative, Sca-1 positive, c-Kit positive and CD34 negative hematopoietic stem cell fractions found in cell population having low incorporation of the probe ([3]; stain 1 μM, 37° C., 30 minutes, two channels excited at 488 nm)","c-Kit positive, compound 7-derived signal negative hematopoietic stem cells in the whole cells [2, 5]"
CCCCN1C(=O)/C(=c2\s/c(=C/c3ccc4c(c3)C3CCCC3N4c3ccc(OC)cc3)c(=O)n2CC)SC1=S (stereo not shown) [Compound 7],539 nm,638 nm,89.4%,0.75%,hematopoietic stem cells can be identified,A,94.7%,
CCN1C(=O)/C(=c2\s/c(=C/c3cc(Br)c4c(c3)C3CCCC3N4c3ccc(Br)cc3)c(=O)n2CC(=O)O)SC1=S (stereo not shown) [Compound 8],513 nm,600 nm,,,,A,,
CCN1C(=O)/C(=c2\s/c(=C/c3cc(Br)c4c(c3)C3CCCC3N4Cc3ccccc3)c(=O)n2CC(=O)O)SC1=S (stereo not shown) [Compound 14],596 nm,520 nm,,,,A,,
CCN1C(=O)S/C(=c2/s/c(=C/c3ccc4c(c3)C3CCCC3N4Cc3ccccc3)c(=O)n2CC(=O)O)C1=O (stereo not shown) [Compound 16],500 nm,578 nm,,,,B,,
CCCCCN1C(=O)/C(=c2\s/c(=C/c3ccc4c(c3)C3CCCC3N4c3ccc(OC)cc3)c(=O)n2CC)SC1=S (stereo not shown) [Compound 19],538 nm,638 nm,,,,B,,
CCN1C(=O)/C(=c2\s/c(=C/c3ccc4c(c3)C3CCCC3N4c3cccc(SC)c3)c(=O)n2CC(=O)O)SC1=S (stereo not shown) [Compound 21],530 nm,612 nm,,,,A,,
COc1ccc(N2c3ccc(/C=C4/SC(=S)N(CC(=O)NCC(=O)O)C4=O)cc3C3CCCC32)cc1 (stereo not shown) [Compound 22],511 nm,626 nm,,,,A,,
O=C(O)CNC(=O)CN1C(=O)/C(=C\c2ccc3c(c2)C2CCCC2N3c2ccccc2)SC1=S (stereo not shown) [Compound 23],499 nm,598 nm,,,,A,,
"O=C1OC2(c3ccc(O)cc3Oc3cc(O)ccc32)c2ccccc21 [Fluorescein, fluorescein, reference compound]",,,,,,C (not stained,,
C[C@H]1O[C@@H](O[C@H]2[C@@H](O)C[C@H](O[C@H]3[C@@H](O)C[C@H](O[C@H]4CC[C@@]5(C)[C@H](CC[C@@H]6[C@@H]5C[C@@H](O)[C@]5(C)[C@@H](C7=CC(=O)OC7)CC[C@]65O)C4)O[C@@H]3C)O[C@@H]2C)C[C@H](O)[C@@H]1O [digoxin],,,,,,,,0.50%
COc1ccc2c3c([nH]c2c1)[C@H](C=C(C)C)N1C(=O)[C@@H]2CCCN2C(=O)[C@@H]1C3 [fumitremorgin C],,,,,,,,0.00%

# Now from value to compound, other results behind:
Excitation wavelength λex [4],Fluorescence wavelength λem [4],SMILES,Cells of CD48 negative and CD150 positive fraction present in region where hematopoietic stem cells were identified [1],"c-Kit positive, compound 7-derived signal negative hematopoietic stem cells in the whole cells ([2]; in the absence of an inhibitor (w/o inhibitors))",Whether hematopoietic stem cells can be identified (in words) ([3]; same manner as Experimental Example 1),"Identification of hematopoietic stem cells ([3]; stain 1 μM, 37° C., 30 minutes)","Lineage Marker negative, Sca-1 positive, c-Kit positive and CD34 negative hematopoietic stem cell fractions found in cell population having low incorporation of the probe ([3]; stain 1 μM, 37° C., 30 minutes, two channels excited at 488 nm)","c-Kit positive, compound 7-derived signal negative hematopoietic stem cells in the whole cells [2, 5]"
543 nm,638 nm,CCN1C(=O)/C(=c2\s/c(=C/c3ccc4c(c3)C3CCCC3N4c3ccc(OC)cc3)c(=O)n2CC(=O)O)SC1=S (stereo not shown) [Compound 9],,,,A,,
540 nm,614 nm,O=C(O)Cn1c(=O)/c(=C\c2ccc3c(c2)C2CCCC2N3Cc2ccccc2)s/c1=C1/SC(=S)N(Cc2ccccc2)C1=O (stereo not shown) [Compound 10],,,,A,,
542 nm,643 nm,COc1ccc(N2c3ccc(/C=c4/s/c(=C5/SC(=S)N(Cc6ccccc6)C5=O)n(CC(=O)O)c4=O)cc3C3CCCC32)cc1 (stereo not shown) [Compound 11],,,,A,,
531 nm,615 nm,CCN1C(=O)/C(=c2\s/c(=C/c3ccc4c(c3)C3CCCC3N4c3ccccc3)c(=O)n2CC(=O)O)SC1=S (stereo not shown) [Compound 12],,,,A,,
539 nm,636 nm,CCN1C(=O)/C(=c2\s/c(=C/c3ccc4c(c3)C3CCCC3N4c3ccc(SC)cc3)c(=O)n2CC(=O)O)SC1=S (stereo not shown) [Compound 13],,,,A,,
504 nm,606 nm,C=CCN1C(=O)/C(=c2\s/c(=C/c3ccc4c(c3)C3CCCC3N4c3ccc(OC)cc3)c(=O)n2CC(=O)O)SC1=S (stereo not shown) [Compound 15],,,,A,,
535 nm,612 nm,CCN1C(=O)/C(=c2\s/c(=C/c3ccc4c(c3)C3CCCC3N4Cc3ccccc3)c(=O)n2CC(=O)O)SC1=S (stereo not shown) [Compound 17],,,,A,,
539 nm,636 nm,CCCN1C(=O)/C(=c2\s/c(=C/c3ccc4c(c3)C3CCCC3N4c3ccc(OC)cc3)c(=O)n2CC)SC1=S (stereo not shown) [Compound 18],,,,A,,
533 nm,615 nm,CCn1c(=O)/c(=C\c2ccc3c(c2)C2CCCC2N3c2ccccc2)s/c1=C1/SC(=S)N(CC(=O)O)C1=O (stereo not shown) [Compound 20],,,,B,,

# Reference: patent publication US9228952B2, “Hematopoietic stem cell identification probe” (CANON KABUSHIKI KAISHA, priority 2012, dated 2016)
